Source: patent US8431611B2, “Artemisinin derivatives” (Johns Hopkins University, priority 2006, dated 2013)
≈ marks a conversion by molar mass, not a printed value. Entries after “also recorded” stand apart in the source; their conditions may differ. Like-named read-outs stand apart in the source and are kept apart here.

How the values were obtained:
[1] = tested on: T. gondii strain 2F; assay: In vitro inhibition of T. gondii (growth inhibition assay); assay type: cell-based, Toxoplasma gondii; conditions: for antitoxoplasma inhibitory activity (growth inhibition assay): in words
Method: (§1) Normal human foreskin fibroblasts (American Type Culture Collection, Manassas, Va.) were used to grow tachyzoites and to test compounds for activity and cytotoxicity. Cells were maintained in Dulbecco's modified Eagle medium (Gibco, Grand Island, N.Y.) containing 10% fetal bovine serum (Atlas Biologicals, Fort Collins, Colo.), 25 mM HEPES (Gibco), 2 mM L-glutamine, 50 units of penicillin G per ml, and 50 μg of streptomycin sulfate per ml. A culture of the tachyzoites of T. gondii strain 2F, which constitutively expresses cytoplasmic β-galactosidase and is derived from strain RH (5), was a gift from Vern Carruthers, University of Michigan Medical School.
(§2) The compounds were tested for in vitro efficacy against T. gondii and cytotoxicity by previously published methods (9, 10). The median inhibitory dose (50% inhibitory dose [ID50]) and the median cytotoxic dose (50% toxic dose [TD50]) were calculated by extrapolation of the corresponding dose-response curve on a log-linear plot employing the portions of the curve that transected the 50% response point. For each compound, a therapeutic index (TI) was calculated by the formula TI=TD50/ID50.
(§3) Artemisinin was obtained from Holley Pharmaceuticals Co., Inc., Fullerton, Calif. Artemether was generously donated by Huiling Wang, University of Wuhan, China. Trimethoprim was purchased from Sigma Chemical Co. (St. Louis, Mo.). Chlorophenol red-β-D-galactopyranoside (Roche, Indianapolis, Ind.), 100 mM in 100 mM HEPES (pH 7.2), was stored frozen at −80° C. CellTiter 96 AQueous One Solution Reagent for determining cytotoxicity was purchased from Promega Corp., Madison, Wis.

[2] = tested on: Normal human foreskin fibroblasts; assay type: cell-based
Method: as §1, §2, §3

[3] = tested on: T. gondii tachyzoites; assay: Replication inhibition assay; assay type: cell-based, Toxoplasma gondii; conditions: 10 μg/ml added 2 hours after infection of HFF cells, 26 hours; FIG. 2
Method: (§4) FIG. 2 illustrates the replication inhibition assay. T. gondii tachyzoites are allowed to infect HFF cells for 2 hours. Following this, compounds are added to the cells for a final concentration of 10 μg/ml and the infection is allowed to progress for 26 hours. Data are compiled from ten randomly selected fields wherein number of vacuoles and number of parasites within the vacuoles are enumerated. Control represents no drug added.
as §4, with “assay (14).” for “assay.”

[4] = tested on: T. gondii tachyzoites; assay: Quantification of invasion using red/green assay (attachment/penetration); assay type: cell-based, Toxoplasma gondii; conditions: 10 μg/ml (range 25-34 μM); FIG. 1
Method: (§5) FIG. 1 illustrates the quantification of invasion using red/green assay. Green bars represent internal/penetrated parasites while red bars depict external/attached parasites. Compounds were tested at 10 μg/ml (range 25-34 μM). BAPTA-AM (20 μM) and cytochalasin D (Cyt D, 2 μM) were included as positive controls for inhibition of attachment or penetration, respectively. Data are mean values±SEM of three independent experiments, counting ten random fields for each sample.
as §5, with “red/green assay (8). Black” for “red/green assay. Green”, “while gray” for “while red”

[5] = tested on: chloroquine-sensitive Plasmodium falciparum (NF 54); assay: Inhibition of replication of malaria parasites; assay type: cell-based; conditions: unpublished data of J. D'Angelo and G. Posner
[6] = Table 1, T. gondii in human foreskin fibroblasts
[7] = Toxoplasma gondii, Fibroblast, Table 1, T. gondii in human foreskin fibroblasts, read-out: ID50 (the source's name)
[8] = Toxoplasma gondii, Table 2, average of three independent experiments, read-out: ID50 (the source's name)
[9] = Toxoplasma gondii, summary of Table 1, read-out: concentration inhibiting toxoplasma replication
[10] = Table 1, T. gondii in human foreskin fibroblasts, read-out: ID50 (the source's name)
[11] = Table 2, average of three independent experiments, read-out: ID50 (the source's name)

With `CO[C@H]1O[C@@H]2O[C@@]3(C)CC[C@H]4[C@H](C)CC[C@@H]([C@H]1C)[C@@]24OO3` [Artemether, reference compound] the ID50 [1, 6] was 0.2 µg/mL (≈ 0.67 µM), the IC50 [1, 7] was 700 nM and the IC50 [1, 8] was 370 nM. The IC50 [1, 9] was < 1 µg/mL and the “concentration of 50% cytotoxicity (TD50)” value ([2]; human) was > 160 µg/mL.
`C[C@@H]1CC[C@H]2[C@@H](C)C(=O)O[C@@H]3O[C@@]4(C)CC[C@@H]1[C@]32OO4` [Artemisinin] was tested, and the “inhibition of T. gondii replication” value [3] was “ineffective”, the ID50 [1, 6] was 2.3 µg/mL (≈ 8.15 µM) and the IC50 [1, 7] was 8000 nM. For the same compound, the IC50 [1, 9] was 2 to 3 µg/mL and the “inhibition of attachment of T. gondii tachyzoites to HFF cells” value (“inhibition of attachment … to HFF cells” for short) [4] was “exception”.
With `C[C@H]1[C@@H](CCCO)O[C@@H]2O[C@]3(C)CC[C@H]4[C@H](C)CC[C@@H]1[C@@]24OO3` [Compound 2a, ART-PrOH] the ID50 [1, 6] was 2.7 µg/mL (≈ 8.27 µM), the IC50 [1, 7] was 8300 nM and the IC50 [1, 9] was 2 to 3 µg/mL.
With `CC1CCC2C(C)C(CCCOC(=O)c3ccccc3)OC3OC4(C)CCC1C32OO4` (stereo not drawn) [Compound 2b] the ID50 [1, 6] was 0.6 µg/mL (≈ 1.39 µM) and the IC50 [1, 10] was 1400 nM.
Compound `CC1CCC2C(C)C(CCCOC(=O)c3ccccc3Br)OC3OC4(C)CCC1C32OO4` (stereo not drawn) [Compound 2c] has an ID50 [1, 6] of 0.6 µg/mL (≈ 1.18 µM) and an IC50 [1, 10] of 1200 nM.
`CC(C)=CCCC(C)CCOCCCC1OC2OC3(C)CCC4C(C)CCC(C1C)C24OO3` (stereo not drawn) [Compound 2d] was tested, and the ID50 [1, 6] was 0.5 µg/mL (≈ 1.08 µM), the IC50 [1, 10] was 1100 nM and the “concentration of 50% cytotoxicity (TD50)” value [2] was > 160 µg/mL.
`CC1=C(c2nccs2)OC2OC3(C)CCC4C(C)CCC1C24OO3` (stereo not drawn) [Compound 3a, DART-Thiaz] was tested, and the “inhibition of T. gondii replication” value [3] was “moderate inhibition” and the IC50 [1, 11] was 1700 nM.
With `CC1=C(c2nc3ccccc3s2)OC2OC3(C)CCC4C(C)CCC1C24OO3` (stereo not drawn) [Compound 3b, DART-Benzothiazole] the “inhibition of T. gondii replication” value [3] was “quite effective” and the IC50 [1, 11] was 1000 nM.
`CC1=C(C=O)OC(C)C1C` (stereo not drawn) [Compound 3c, DART-ald] was tested, and the “inhibition of T. gondii replication” value [3] was “quite effective” and the IC50 [1, 8] was 1000 nM.
For `CC1=C(C(=O)O)OC(C)C1C` (stereo not drawn) [Compound 3d, DART-C(O)—OH], the “inhibition of T. gondii replication” value [3] was “ineffective” and the IC50 [1, 8] was 40300 nM.
In the case of `COC(=O)C1=C(C)C(C)C(C)O1` (stereo not drawn) [Compound 3e, DART-C(O)—OMe], the “inhibition of T. gondii replication” value [3] is reported as “moderate inhibition”, the IC50 [1, 8] is reported as 2900 nM and the “concentration of 50% cytotoxicity (TD50)” value ([2]; human) is reported as > 160 µg/mL.
With `CCNC(=O)C1=C(C)C(C)C(C)O1` (stereo not drawn) [Compound 3f, DART-C(O)—NHEt] the “inhibition of T. gondii replication” value [3] was “moderate inhibition”, the IC50 [1, 8] was 4400 nM and the “inhibition of attachment … to HFF cells” value [4] was “exception”.
With `C[C@H]1[C@@H](CCCO)O[C@@H]2O[C@]3(C)CC[C@H]4[C@H](C)CC[C@@H]1[C@@]24O3` [Deoxy-2a, Deoxy-ART-PrOH] the ID50 [1, 6] was 173 µg/mL (≈ 557 µM), the IC50 [1, 7] was 560000 nM and the “antitoxoplasma inhibitory activity (growth inhibition assay)” value [1] was “virtually no inhibitory activity; also recorded: devoid of antitoxoplasma activity”. The antimalaria activity [5] was “virtually no antimalaria activity”.
`CC1=C(c2nccs2)OC2O[C@]3(C)CC[C@H]4[C@H](C)CC[C@@H]1[C@@]24O3` (stereo partly drawn) [Deoxy-3a, deoxy-DART-thiaz] was tested, and the “inhibition of T. gondii replication” value [3] was “ineffective”, the IC50 [1, 8] was 960000 nM and the “antitoxoplasma inhibitory activity (growth inhibition assay)” value [1] was “little or no efficacy; also recorded: devoid of antitoxoplasma activity”. For the same compound, the “inhibition of attachment … to HFF cells” value [4] was “effective in inhibition of attachment” and the antimalaria activity [5] was “virtually no antimalaria activity”.
Compound `COc1cc(Cc2cnc(N)nc2N)cc(OC)c1OC` [Trimethoprim, reference compound] has an ID50 [1, 6] of 5.2 µg/mL (≈ 17.9 µM), an IC50 ([1]; Toxoplasma gondii, Fibroblast, read-out: ID50) of 17900 nM and an IC50 ([1]; Toxoplasma gondii, read-out: ID50) of 19000 nM. The IC50 ([1]; Toxoplasma gondii, read-out: concentration inhibiting toxoplasma replication) was 5.2 µg/mL and the “concentration of 50% cytotoxicity (TD50)” value ([2]; human) was 60 µg/mL.
